# Data reported in patent publication US7723339B2, “Combination comprising a signal transduction inhibitor and an epothilone derivative” (Novartis AG, priority 2001, dated 2010).
# Columns and labels:
# [1] = test system: KAT-4 mouse thyroid carcinoma; assay: KAT-4 thyroid carcinoma tumors in SCID mice; assay type: in vivo; conditions: for effect on tumor growth: STI571 100 mg/kg gavage once daily from day 3, EPO906 0.3 mg/kg s.c. days 6, 13, 20
# Protocol: Study on the Effects of Combining Epothilone B Treatment of KAT-4 Mouse Thyroid Carcinoma with Treatment with STI571
# Epothilone B is administered s.c. once weekly. STI571, at a dose of 100 mg/kg, is administered by gavage and given once daily. Tumor volume is determined by mesurements with calipers.
# In the study four groups of tumor bearing mice are analyzed: control treated mice, mice treated with either STI571 (100 mg/kg) or 0.3 mg/kg of EPO906 alone and mice treated with both drugs. Treatment is performed on mice with an average starting size of tumor of approximatly 100 mm^3. EPO906 is given at days 6, 13 and 20 and STI571 is given once daily from day 3.
# [2] = test system: rat C6 glioma tumor xenografts; assay: Rat C6 glioma tumor xenografts in female BALB/C mice; assay type: in vivo; conditions: for Delta tumor volumes (mean mm^3±SEM): q7d (i.v., days 3 and 10) alone, control 1289±178
# Protocol: STI571 Alone, Epothilone B (EPO906) Alone and the Combination of STI571 Plus Epothilone B Versus Rat C6 Glioma Tumor Xenografts in Female BALB/C Mice
# Tumors are initiated by the s.c. injection of 1×10^6 rat C6 cells (n=8/group). When the tumors reaches ˜75 mm^3, STI571 treatment is begun at 200 mg/kg, p.o., q24h.
Structure (SMILES),effect on tumor growth [1],"final tumor size as % of control tumors ([1]; end of experiment, STI571 100 mg/kg once daily, EPO906 0.3 mg/kg once weekly) [%]",Delta tumor volumes (mean mm^3±SEM) ([2]; EPO906 1 mg/kg) [mm^3],Delta tumor volumes (mean mm^3±SEM) ([2]; EPO906 2 mg/kg) [mm^3],"Delta tumor volume ratio treated/controls ([2]; STI571 200 mg/kg p.o. q24h, EPO906 2 mg/kg q7d)"
"C/C(=C\c1csc(C)n1)[C@@H]1C[C@@H]2O[C@]2(C)CCC[C@H](C)[C@H](O)[C@@H](C)C(=O)C(C)(C)[C@@H](O)CC(=O)O1 [EPO906, epothilone B]",statistically significant reduction of tumor growth,69,864±115,419±116,0.325
"Cc1ccc(NC(=O)c2ccc(CN3CCN(C)CC3)cc2)cc1Nc1nccc(-c2cccnc2)n1 [STI571, N-{5-[4-(4-methyl-piperazino-methyl)-benzoylamido]-2-methylphenyl}-4-(3-pyridyl)-2-pyrimidine-amine]",no effect,,,,
